Measurements as given in patent publication US7998948B2, “Pharmaceutical composition for treating esophageal cancer” (Eisai R&D Management Co., Ltd., priority 2007, dated 2011).

Tests used:
Assay type in all cases: cell-based
[1] = system: OE33 human esophageal cancer cells; test: Inhibitory action against proliferation of human esophageal cancer cells (OE33); details: OE33, 72 h, 0E33 cells, RPMI1640 with 10% FBS, 3 days incubation, Cell Counting Kit-8, read-out: concentration of the test substance required to inhibit 50% of cell proliferation (IC50), 0E33
Method: (§1) Human esophageal cancer cells (OE19, OE21 and OE33) were purchased from Dainippon Sumitomo Pharma Co., Ltd. OE19, OE21 or was suspended in RPMI1640 medium (purchased from Sigma) containing 10% FBS. The cell suspension (2×10^4 cells/ml) was dispensed into a 96-well plate (purchased from FALCON; product No. 353075) by 0.1 ml/well, and incubated at 37° C. in a 5% CO2 incubator overnight. After the incubation, 0.1 ml of the test substance diluted with RPMI1640 medium containing 10% FBS was added to each well, which was further incubated for 3 days in the 5% CO2 incubator (37° C.). After the incubation, 10 μl of Cell Counting Kit-8 (purchased from DOJINDO Laboratories) was added to each well, which were incubated for about 2 hours in the 5% CO2 incubator (37° C.). After the incubation, the absorbance of the each well was measured using a plate reader MTP-500 (Corona Electric Co., Ltd) with a measurement wavelength of 450 nm and a control wavelength of 660 nm. A ratio of absorbance (%) of each well with the test substance against the wells without the test substance was determined, and based on this ratio, the concentration of the test substance required to inhibit 50% of cell proliferation (IC50; μM) was determined and the results are shown in Table 1.

[2] = system: OE19 human esophageal cancer cells; test: Inhibitory action against proliferation of human esophageal cancer cells (OE19); details: OE19, 72 h, 0E19 cells, RPMI1640 with 10% FBS, 3 days incubation, Cell Counting Kit-8, read-out: concentration of the test substance required to inhibit 50% of cell proliferation (IC50), 0E19
Method: as §1

[3] = system: OE21 human esophageal cancer cells; test: Inhibitory action against proliferation of human esophageal cancer cells (OE21); details: OE21, 72 h, 0E21 cells, RPMI1640 with 10% FBS, 3 days incubation, Cell Counting Kit-8, read-out: concentration of the test substance required to inhibit 50% of cell proliferation (IC50), 0E21
Method: as §1

IC50 [1] [nM]	IC50 [2] [nM]	IC50 [3] [nM]	SMILES
670	3500	3000	CN1CCN(C2CCN(C(=O)Nc3cc(Oc4cc(F)c(NC(=O)C5(C(=O)Nc6ccc(F)cc6)CC5)cc4F)ccn3)CC2)CC1 [N-(2,5-Difluoro-4-{[2-({[4-(4-methylpiperazin-1-yl)piperidin-1-yl]carbonyl}amino)pyridin-4-yl]oxy}phenyl)-N′-(4-fluorophenyl)cyclopropane-1,1-dicarboxamide]
180	4200	> 10000	O=C(Nc1cc(Oc2ccc(NC(=O)C3(C(=O)Nc4ccc(F)cc4)CC3)c(F)c2)ccn1)N1CCC1 [N-[4-({2-[(Azetidin-1-ylcarbonyl)amino]pyridin-4-yl}oxy)-2-fluorophenyl]-N′-(4-fluorophenyl)cyclopropane-1,1-dicarboxamide]
250	3200	7400	O=C(Nc1cc(Oc2cc(F)c(NC(=O)C3(C(=O)Nc4ccc(F)cc4)CC3)cc2F)ccn1)N1CC(CO)C1 [N-(2,5-Difluoro-4-{[2-({[3-(hydroxymethyl)azetidin-1-yl]carbonyl}amino)pyridin-4-yl]oxy}phenyl)-N′-(4-fluorophenyl)cyclopropane-1,1-dicarboxamide]
240	5200	6400	O=C(Nc1cc(Oc2cc(F)c(NC(=O)C3(C(=O)Nc4ccc(F)cc4)CC3)cc2F)ccn1)N1CC(O)C1 [N-{2,5-Difluoro-4-[(2-{[(3-hydroxyazetidin-1-yl)carbonyl]amino}pyridin-4-yl)oxy]phenyl}-N′-(4-fluorophenyl)cyclopropane-1,1-dicarboxamide]
140	2300	1700	CN1CCC(N(C)C(=O)Nc2cc(Oc3cc(F)c(NC(=O)C4(C(=O)Nc5ccc(F)cc5)CC4)cc3F)ccn2)CC1 [N-(2,5-Difluoro-4-{[2-({[methyl(1-methylpiperidin-4-yl)amino]carbonyl}amino)pyridin-4-yl]oxy}phenyl)-N′-(4-fluorophenyl)cyclopropane-1,1-dicarboxamide]
1600	3600	5500	CN1CCN(C2CCN(C(=O)Nc3cc(Oc4ccc(NC(=O)C5(C(=O)Nc6ccc(F)cc6)CC5)c(F)c4)ccn3)CC2)CC1 [N-(2-Fluoro-4-{[2-({[4-(4-methylpiperazin-1-yl)piperidin-1-yl]carbonyl}amino)pyridin-4-yl]oxy}phenyl)-N′-(4-fluorophenyl)cyclopropane-1,1-dicarboxamide]
